In PubChem BioAssay (NCI):
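In this assay, cells in 96-well plates receive the compound at five concentrations for 48 hours. Endpoints are linearly interpolated between the surrounding concentrations. Definition used: TGI = concentration required for complete inhibition of growth.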

What was measured:
Assay in all cases: NCI tumour cell line growth inhibition, 48 h
[1] = test system: 786-0 renal
[2] = test system: A549 NSCLC
[3] = test system: BT-549 breast
[4] = test system: CCRF-CEM leukemia
[5] = test system: COLO 205 colon
[6] = test system: DU-145 prostate
[7] = test system: EKVX NSCLC
[8] = test system: HCC-2998 colon
[9] = test system: HCT-116 colon
[10] = test system: HCT-15 colon
[11] = test system: HL-60(TB) leukemia
[12] = test system: HOP-62 NSCLC
[13] = test system: HOP-92 NSCLC
[14] = test system: HT29 colon
[15] = test system: IGROV1 ovarian
[16] = test system: K-562 leukemia
[17] = test system: KM12 colon
[18] = test system: LOX IMVI melanoma
[19] = test system: M14 melanoma
[20] = test system: MCF7 breast
[21] = test system: MDA-MB-231 breast
[22] = test system: MDA-MB-435
[23] = test system: MDA-N
[24] = test system: MOLT-4 leukemia
[25] = test system: NCI-H23 lung
[26] = test system: NCI-H460 lung
[27] = test system: NCI-H522 lung
[28] = test system: NCI/ADR-RES ovarian
[29] = test system: OVCAR-3 ovarian
[30] = test system: OVCAR-4 ovarian
[31] = test system: OVCAR-5 ovarian
[32] = test system: OVCAR-8 ovarian
[33] = test system: PC-3 prostate
[34] = test system: SF-268 CNS
[35] = test system: SF-295 CNS
[36] = test system: SF-539 CNS
[37] = test system: SK-MEL-28 melanoma
[38] = test system: SK-MEL-5 melanoma
[39] = test system: SK-OV-3 ovarian
[40] = test system: SN12C renal
[41] = test system: SNB-19 CNS
[42] = test system: SNB-75 CNS
[43] = test system: SR leukemia
[44] = test system: SW-620 colon
[45] = test system: T-47D breast
[46] = test system: TK-10 renal
[47] = test system: U251 CNS
[48] = test system: UACC-257 melanoma
[49] = test system: UACC-62 melanoma
[50] = test system: UO-31 renal
[51] = test system: A498 renal
[52] = test system: ACHN renal
[53] = test system: CAKI-1 renal
[54] = test system: HS 578T breast
[55] = test system: MALME-3M melanoma
[56] = test system: NCI-H226 lung
[57] = test system: RPMI-8226 leukemia
[58] = test system: RXF 393 renal
[59] = test system: SK-MEL-2 melanoma

Measured: TGI

c1ccc2c(c1)SCCCSCCSCCCS2
> 100 µM: [1] | [2] | [3] | [4] | [5] | [6] | [7] | [8] | [9] | [10] | [11] | [12] | [13] | [14] | [15] | [16] | [17] | [18] | [19] | [20] | [21] | [22] | [23] | [24] | [25] | [26] | [27] | [28] | [29] | [30] | [31] | [32] | [33] | [34] | [35] | [36] | [37] | [38] | [39] | [40] | [41] | [42] | [43] | [44] | [45] | [46] | [47] | [48] | [49] | [50]

CCOC(=O)c1cc2c([N+](=O)[O-])c(N)ccc2s1
> 100 µM: [1] | [51] | [2] | [52] | [3] | [53] | [4] | [5] | [6] | [7] | [8] | [9] | [10] | [11] | [12] | [13] | [54] | [14] | [15] | [16] | [17] | [18] | [19] | [55] | [20] | [21] | [22] | [23] | [24] | [56] | [25] | [26] | [27] | [28] | [29] | [30] | [31] | [32] | [33] | [57] | [58] | [34] | [35] | [36] | [59] | [37] | [38] | [39] | [40] | [41] | [42] | [44] | [45] | [46] | [47] | [48] | [49] | [50]
